# Laboratory results: patent US12459951B2, “Compounds that interact with RAS superfamily proteins for treatment of cancers, inflammatory diseases, rasopathies, and fibrotic disease” (SHY Therapeutics, LLC, priority 2022, dated 2025)
# How the values were obtained:
# [1] = system: Akt phosphorylation; test: Akt Phosphorylation Assay (western blot), Panc-1; format: cell-based, human; details: at 10 μM, * = activation
# Procedure, shortened: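 Phospho-Akt (Ser473) was measured by western blot in lysates of KRas G12D Panc-1 cells exposed to test compound for 6 h at 37 °C, either at 10 μM final with 0.3% DMSO or as serial dilutions for IC50. One format used overnight 0.5% FBS starvation followed by a 15 min pulse of 1.5 ng/ml EGF. The other used cells in 10% FBS with no stimulation.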
# [2] = target: T1, Rac-1 (Homo sapiens, UniProt P63000); test: Ras GTP Binding Domain Inhibition Assay (Ras Superfamily Assay); details: read-out: Rac-1: % inh.
# T1 construct: made in house
# Procedure, shortened: (§1)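 Ni-plate capture of His-tagged protein (10-30 μg/mL, o/n 4° C); cpd 20 μM or dilution series, 1% DMSO, 3 h RT ± Sos 556-1049 last h; 100 nM Cy-labelled GTP 45 min RT; 3× wash; fluorescence read.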
# [3] = system: KRas G12D mutant; test: as above; details: 20 μM compound; for KRas G12D mutant + SOS: % inh.: with SOS; for KRas G12D mutant: % inh.: without SOS
# Procedure, shortened: as §1
# [4] = target: T2, Rho-A (Homo sapiens, UniProt P61586); test: as above; details: read-out: Rho-A: % inh..
# T2 construct: made in house
# Procedure, shortened: as §1
# [5] = system: KRas G12C mutant; test: as above; details: 20 μM compound; for KRas G12C mutant + SOS: % inh.: with SOS; for KRas G12C mutant: % inh.: without SOS
# Procedure, shortened: as §1
# [6] = system: KRas Q61H mutant; test: as above; details: 20 μM compound; for KRas Q61H mutant + SOS: % inh.: with SOS; for KRas Q61H mutant: % inh.: without SOS
# Procedure, shortened: as §1
# [7] = system: KRas wild type; test: as above; details: 20 μM compound; for KRas wild type + SOS: % inh.: with SOS; for KRas wild type: % inh.: without SOS
# Procedure, shortened: as §1
# T2 sequence (P61586 whole entry): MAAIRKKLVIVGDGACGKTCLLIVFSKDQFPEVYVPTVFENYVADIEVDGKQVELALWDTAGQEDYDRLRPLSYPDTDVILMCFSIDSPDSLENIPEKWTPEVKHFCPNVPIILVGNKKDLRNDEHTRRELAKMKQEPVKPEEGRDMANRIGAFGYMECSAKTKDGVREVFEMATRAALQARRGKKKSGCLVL
Structure (SMILES),inhibition at 20 µM [2],KRas G12D mutant + SOS: % inh. [3],KRas G12D mutant: % inh. [3],inhibition at 20 µM [4],KRas G12C mutant + SOS: % inh. [5],KRas G12C mutant: % inh. [5],KRas Q61H mutant + SOS: % inh. [6],KRas Q61H mutant: % inh. [6],KRas wild type + SOS: % inh. [7],KRas wild type: % inh. [7],% inh of Akt phosphorylation in Panc-1 [1]
"COc1cc(Nc2nc(-c3nccn3C)nn3cc(-c4cccnc4)c(C)c23)ncn1 [Compound 48, N-(6-Methoxypyrimidin-4-yl)-5-methyl-2-(1-methyl-1H-imidazol-2-yl)-6-(pyridin-3-yl)pyrrolo[2,1-f][1,2,4]triazin-4-amine]",50 to 75%,C (C = 50-75% inhibition),C (C = 50-75% inhibition),76 to 100%,A (A = 1-25% inhibition),C (C = 50-75% inhibition),D (D = 76-100% inhibition),D (D = 76-100% inhibition),B (B = 26-49% inhibition),C (C = 50-75% inhibition),D* (85-100% activation)
"COc1cccc(-c2cn3nc(-c4nccn4C)nc(N[C@H]4C[C@@H](OC)C4)c3c2-c2ccccc2)c1Cl [Compound 31, 6-(2-Chloro-3-methoxyphenyl)-N-((1s,3s)-3-methoxycyclobutyl)-2-(1-methyl-1H-imidazol-2-yl)-5-phenylpyrrolo[2,1-f][1,2,4]triazin-4-amine]",1 to 25%,B (B = 26-49% inhibition),A (A = 1-25% inhibition),1 to 25%,0 (0 = 0% inhibition),A (A = 1-25% inhibition),A (A = 1-25% inhibition),0 (0 = 0% inhibition),0 (0 = 0% inhibition),A (A = 1-25% inhibition),D (85-100% inhibition)
"COc1cccc(-c2cn3nc(-c4nccn4C)nc(N[C@H]4C[C@H](OC)C4)c3c2-c2ccccc2)c1Cl [Compound 32, 6-(2-Chloro-3-methoxyphenyl)-N-((1r,3r)-3-methoxycyclobutyl)-2-(1-methyl-1H-imidazol-2-yl)-5-phenylpyrrolo[2,1-f][1,2,4]triazin-4-amine]",0%,0 (0 = 0% inhibition),0 (0 = 0% inhibition),1 to 25%,0 (0 = 0% inhibition),0 (0 = 0% inhibition),A (A = 1-25% inhibition),A (A = 1-25% inhibition),0 (0 = 0% inhibition),A (A = 1-25% inhibition),D (85-100% inhibition)
"Cc1c(-c2ccn(C(C)C)n2)cn2nc(-c3nccn3C)nc(Nc3ncco3)c12 [Compound 60, N-(6-(1-Isopropyl-1H-pyrazol-3-yl)-5-methyl-2-(1-methyl-1H-imidazol-2-yl)pyrrolo[2,1-f][1,2,4]triazin-4-yl)oxazol-2-amine]",1 to 25%,A (A = 1-25% inhibition),A (A = 1-25% inhibition),1 to 25%,0 (0 = 0% inhibition),A (A = 1-25% inhibition),C (C = 50-75% inhibition),B (B = 26-49% inhibition),A (A = 1-25% inhibition),A (A = 1-25% inhibition),D* (85-100% activation)
"COC1CCCN(c2nc(-c3ccccn3)nn3cc(-c4ccn(C(C)C)n4)c(-c4ccccc4)c23)C1 (racemic) [Compound 27, rac 6-(1-Isopropyl-1H-pyrazol-3-yl)-4-(3-methoxypiperidin-1-yl)-5-phenyl-2-(pyridin-2-yl)pyrrolo[2,1-f][1,2,4]triazine]",1 to 25%,0 (0 = 0% inhibition),0 (0 = 0% inhibition),1 to 25%,0 (0 = 0% inhibition),0 (0 = 0% inhibition),0 (0 = 0% inhibition),A (A = 1-25% inhibition),A (A = 1-25% inhibition),A (A = 1-25% inhibition),A* (1-25% activation)

# Continued, in another order:
inhibition at 20 µM [2],KRas G12D mutant + SOS: % inh. [3],KRas G12D mutant: % inh. [3],inhibition at 20 µM [4],KRas G12C mutant + SOS: % inh. [5],KRas G12C mutant: % inh. [5],KRas Q61H mutant + SOS: % inh. [6],KRas Q61H mutant: % inh. [6],KRas wild type + SOS: % inh. [7],KRas wild type: % inh. [7],Structure (SMILES),% inh of Akt phosphorylation in Panc-1 [1]
50 to 75%,B (B = 26-49% inhibition),C (C = 50-75% inhibition),76 to 100%,B (B = 26-49% inhibition),B (B = 26-49% inhibition),C (C = 50-75% inhibition),C (C = 50-75% inhibition),B (B = 26-49% inhibition),C (C = 50-75% inhibition),"COc1cncnc1Nc1nc(-c2nccn2C)nn2cc(-c3ccn(C(C)C)n3)c(C)c12 [Compound 73, 6-(1-Isopropyl-1H-pyrazol-3-yl)-N-(5-methoxypyrimidin-4-yl)-5-methyl-2-(1-methyl-1H-imidazol-2-yl)pyrrolo[2,1-f][1,2,4]triazin-4-amine]",D* (85-100% activation)
76 to 100%,D (D = 76-100% inhibition),D (D = 76-100% inhibition),76 to 100%,D (D = 76-100% inhibition),D (D = 76-100% inhibition),D (D = 76-100% inhibition),D (D = 76-100% inhibition),D (D = 76-100% inhibition),D (D = 76-100% inhibition),"Cc1c(-c2ccn(C(C)C)n2)cn2nc(-c3nccn3C)nc(Nc3ccn(C)n3)c12 [Compound 61, 6-(1-Isopropyl-1H-pyrazol-3-yl)-5-methyl-2-(1-methyl-1H-imidazol-2-yl)-N-(1-methyl-1H-pyrazol-3-yl)pyrrolo[2,1-f][1,2,4]triazin-4-amine]",C* (46-84% activation)
50 to 75%,C (C = 50-75% inhibition),C (C = 50-75% inhibition),76 to 100%,B (B = 26-49% inhibition),C (C = 50-75% inhibition),C (C = 50-75% inhibition),C (C = 50-75% inhibition),C (C = 50-75% inhibition),C (C = 50-75% inhibition),"Cc1c(-c2ccn(C(C)C)n2)cn2nc(-c3nccn3C)nc(Nc3nnc(C4CC4)o3)c12 [Compound 67, 5-Cyclopropyl-N-(6-(1-isopropyl-1H-pyrazol-3-yl)-5-methyl-2-(1-methyl-1H-imidazol-2-yl)pyrrolo[2,1-f][1,2,4]triazin-4-yl)-1,3,4-oxadiazol-2-amine]",D* (85-100% activation)
1 to 25%,A (A = 1-25% inhibition),A (A = 1-25% inhibition),1 to 25%,0 (0 = 0% inhibition),A (A = 1-25% inhibition),0 (0 = 0% inhibition),A (A = 1-25% inhibition),0 (0 = 0% inhibition),A (A = 1-25% inhibition),"Cc1c(-c2ccn(C(C)C)n2)cn2nc(-c3nccn3C)nc(Nc3nc(C4CC4)no3)c12 [Compound 70, 3-Cyclopropyl-N-(6-(1-isopropyl-1H-pyrazol-3-yl)-5-methyl-2-(1-methyl-1H-imidazol-2-yl)pyrrolo[2,1-f][1,2,4]triazin-4-yl)-1,2,4-oxadiazol-5-amine]",C* (46-84% activation)
76 to 100%,D (D = 76-100% inhibition),D (D = 76-100% inhibition),76 to 100%,D (D = 76-100% inhibition),D (D = 76-100% inhibition),D (D = 76-100% inhibition),D (D = 76-100% inhibition),D (D = 76-100% inhibition),D (D = 76-100% inhibition),"Cc1c(-c2ccn(C(C)C)n2)cn2nc(-c3nccn3C)nc(Nc3cc(C4CC4)n[nH]3)c12 [Compound 68, N-(3-Cyclopropyl-1H-pyrazol-5-yl)-6-(1-isopropyl-1H-pyrazol-3-yl)-5-methyl-2-(1-methyl-1H-imidazol-2-yl)pyrrolo[2,1-f][1,2,4]triazin-4-amine]",D* (85-100% activation)
